From the supplement of paper PMC10307832

Assays:
Experiment in all cases: relative viability (nuclei count vs DMSO), 5 days (fraction); higher = more cells survive
[1] = compound: COc1cc2ncn(-c3cc(OCc4ccccc4C(F)(F)F)c(C(N)=O)s3)c2cc1OC + Nc1nc2[nH]cc(CCc3ccc(C(=O)N[C@@H](CCC(=O)O)C(=O)O)cc3)c2c(=O)[nH]1 [Pemetrexed] (partner 0.2 µM)
Outline: (§1)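 Relative viability divides the nuclei count in treated wells by that in vehicle wells. Lung cancer cell lines were seeded in 1536-well plates, dosed by pin tool the next day, and fixed and stained after 5 days in one step with final 0.05% Triton X-100, 1% formaldehyde and 1 ug/ml Hoechst. Dosing was a single drug or a fixed anchor-drug dose plus five library-drug doses (not always all listed) in √10 steps, and values are medians of duplicate plates imaged at 4×.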

[2] = compound: COc1cc2ncn(-c3cc(OCc4ccccc4C(F)(F)F)c(C(N)=O)s3)c2cc1OC + NC(=O)Nc1cc(-c2cccc(F)c2)sc1C(=O)N[C@H]1CCCNC1 [AZD7762] (partner 0.2 µM)
Outline: as §1

[3] = compound: COc1cc2ncn(-c3cc(OCc4ccccc4C(F)(F)F)c(C(N)=O)s3)c2cc1OC + COc1cc2c(Oc3ccc(NC(=O)C4(C(=O)Nc5ccc(F)cc5)CC4)cc3F)ccnc2cc1OCCCN1CCOCC1 [Foretinib] (partner 0.25 µM)
Outline: as §1

[4] = compound: COc1cc2ncn(-c3cc(OCc4ccccc4C(F)(F)F)c(C(N)=O)s3)c2cc1OC + COc1cccc2cc(-c3nc([C@H]4CC[C@H](C(=O)O)CC4)n4ncnc(N)c34)[nH]c12 [OSI-027] (partner 0.5 µM)
Outline: as §1

| Cell Line | relative viability ([1]; first compound 0.05 µM) | relative viability ([1]; first compound 0.1581 µM) | relative viability ([1]; first compound 0.5 µM) | relative viability ([1]; first compound 1.581 µM) | relative viability ([1]; first compound 5 µM) | relative viability ([2]; first compound 0.05 µM) | relative viability ([2]; first compound 0.1581 µM) | relative viability ([2]; first compound 0.5 µM) | relative viability ([2]; first compound 1.581 µM) | relative viability ([2]; first compound 5 µM) | relative viability ([3]; first compound 0.05 µM) | relative viability ([3]; first compound 0.1581 µM) | relative viability ([3]; first compound 0.5 µM) | relative viability ([3]; first compound 1.581 µM) | relative viability ([3]; first compound 5 µM) | relative viability ([4]; first compound 0.05 µM) | relative viability ([4]; first compound 0.1581 µM) | relative viability ([4]; first compound 0.5 µM) | relative viability ([4]; first compound 1.581 µM) | relative viability ([4]; first compound 5 µM) |
| --- | --- | --- | --- | --- | --- | --- | --- | --- | --- | --- | --- | --- | --- | --- | --- | --- | --- | --- | --- | --- |
| A-427 | 1.05 | 1.02 | 0.887 | 0.257 | 0.203 | 0.793 | 0.68 | 0.682 | 0.231 | 0.153 | 1.13 | 0.923 | 0.81 | 0.398 | 0.137 | 0.54 | 0.339 | 0.432 | 0.158 | 0.114 |
| H3255 | 0.556 | 0.602 | 0.552 | 0.332 | 0.341 | 0.946 | 0.922 | 0.625 | 0.395 | 0.324 | 0.876 | 1.06 | 0.714 | – | 0.542 | 0.599 | 0.536 | 0.485 | – | 0.34 |
| NCI-H1734 | 0.401 | 0.386 | 0.41 | 0.25 | 0.164 | 0.588 | 0.608 | 0.511 | 0.18 | 0.134 | 0.85 | 1.06 | 0.56 | 0.257 | 0.204 | 0.619 | 0.688 | 0.489 | 0.26 | 0.194 |
| NCI-H1993 | 0.513 | 0.616 | 0.41 | 0.421 | 0.448 | 0.921 | 0.814 | 0.53 | 0.418 | 0.381 | 0.652 | 0.884 | 0.662 | 0.579 | 0.569 | 0.477 | 0.549 | 0.429 | 0.438 | 0.491 |
| NCI-H1437 | 0.317 | 0.32 | 0.221 | 0.232 | 0.179 | 1.24 | 1.09 | 0.6 | 0.198 | 0.154 | 1.38 | 1.17 | 0.456 | 0.267 | 0.194 | 0.958 | 0.79 | 0.298 | 0.142 | 0.118 |
| NCI-H596 | 0.559 | 0.463 | 0.454 | 0.359 | 0.337 | 1.1 | 1.14 | 0.943 | 0.664 | 0.413 | 1.03 | 0.908 | 0.481 | 0.307 | 0.242 | 0.758 | 0.759 | 0.429 | 0.222 | 0.253 |
| 201T | 0.355 | 0.319 | 0.29 | 0.303 | 0.192 | 0.642 | 0.668 | 0.554 | 0.442 | 0.242 | 1.06 | 1.09 | 1.07 | 0.414 | 0.165 | 0.755 | 0.699 | 0.672 | – | 0.369 |
| NCI-H358 | 0.196 | 0.167 | 0.192 | 0.102 | 0.0855 | 0.541 | 0.493 | 0.419 | 0.193 | 0.14 | 0.724 | 0.71 | 0.484 | 0.0999 | 0.0726 | 0.744 | 0.726 | 0.549 | 0.0578 | 0.067 |
| ChaGo-K-1 | 0.263 | 0.251 | 0.232 | 0.175 | 0.153 | 0.896 | 0.853 | 0.882 | 0.237 | 0.16 | 0.915 | 0.89 | 0.71 | 0.266 | 0.172 | 0.622 | 0.531 | 0.32 | 0.182 | 0.134 |
| LOU-NH91 | 0.344 | 0.357 | 0.362 | 0.291 | 0.264 | 0.774 | 0.818 | 0.638 | 0.41 | 0.277 | 0.933 | 0.978 | 0.754 | 0.423 | 0.713 | 0.677 | 0.772 | 0.656 | 0.525 | 0.682 |
| HOP-62 | 0.261 | 0.302 | 0.265 | 0.123 | 0.0991 | 0.523 | 0.714 | 0.316 | 0.118 | 0.0755 | 1.16 | 1 | 1.03 | 0.295 | 0.139 | 0.846 | 0.888 | 0.537 | 0.226 | 0.144 |
| NCI-H1915 | 0.478 | 0.489 | 0.37 | 0.137 | 0.0826 | 0.709 | 0.862 | 0.597 | 0.161 | 0.097 | 1.08 | 1.03 | 0.702 | 0.204 | 0.141 | 0.657 | 0.543 | 0.321 | 0.136 | 0.114 |
| NCI-H3122 | 0.21 | 0.196 | 0.16 | 0.124 | 0.11 | 1.07 | 0.81 | 0.359 | 0.133 | 0.144 | 0.976 | 0.93 | 0.241 | 0.123 | 0.148 | 1.01 | 0.555 | 0.124 | 0.113 | 0.157 |
| NCI-H1651 | 0.636 | 0.578 | 0.468 | 0.402 | 0.326 | 0.415 | 0.518 | 0.32 | 0.37 | 0.303 | 0.832 | 0.893 | 0.655 | 0.118 | 0.102 | 0.762 | 0.737 | 0.594 | 0.145 | 0.0994 |
| PC-14 | 0.132 | 0.148 | 0.126 | 0.048 | 0.0388 | 0.371 | 0.405 | 0.334 | 0.113 | 0.0718 | 0.934 | 0.929 | 0.784 | – | 0.629 | 0.861 | 0.904 | 0.254 | 0.0302 | 0.027 |
| NCI-H647 | 0.179 | 0.176 | 0.0943 | 0.06 | 0.0757 | 0.356 | 0.491 | 0.248 | 0.0314 | 0.026 | 1.1 | 1.17 | 0.444 | 0.195 | 0.0972 | 0.687 | 0.561 | 0.536 | 0.0932 | 0.0815 |
| NCI-H441 | 0.248 | 0.27 | 0.189 | 0.148 | 0.158 | 1.13 | 0.73 | 0.437 | 0.198 | 0.171 | 1.03 | 0.871 | 0.266 | 0.249 | 0.226 | 0.553 | 0.495 | 0.2 | 0.245 | 0.237 |
| NCI-H1355 | 1.12 | 0.924 | 0.88 | 0.223 | 0.141 | 0.793 | 0.747 | 0.456 | 0.163 | 0.137 | 0.935 | 0.888 | 0.642 | 0.218 | 0.139 | 0.433 | 0.367 | 0.223 | 0.177 | 0.126 |
| NCI-H2347 | 0.455 | 0.434 | 0.403 | 0.364 | 0.33 | 0.832 | 0.726 | 0.716 | 0.435 | 0.393 | 0.966 | 0.916 | 0.98 | 0.651 | 0.428 | 0.488 | 0.492 | 0.326 | 0.308 | 0.375 |
| LCLC-97TM1 | 0.215 | 0.217 | 0.147 | 0.11 | 0.0881 | 0.355 | 0.293 | 0.161 | 0.0896 | 0.0604 | 0.914 | 0.896 | 0.646 | 0.184 | 0.147 | 0.529 | 0.538 | 0.301 | 0.195 | 0.175 |
| EMC-BAC-2 | 0.459 | 0.446 | 0.441 | 0.338 | 0.311 | 1.18 | 1.21 | 1.08 | 0.357 | 0.223 | 1.11 | 1.01 | 0.815 | 0.309 | 0.212 | 0.37 | 0.429 | 0.29 | 0.194 | 0.172 |
| NCI-H1975 | 0.3 | 0.274 | 0.232 | 0.188 | 0.159 | 0.737 | 0.751 | 0.564 | 0.433 | 0.261 | 0.932 | 0.961 | 0.516 | 0.155 | 0.138 | 0.66 | 0.547 | 0.328 | 0.109 | 0.1 |
| BEN | 0.702 | 0.706 | 0.667 | 0.515 | 0.388 | 0.788 | 0.735 | 0.678 | 0.464 | 0.389 | 0.559 | 0.557 | 0.623 | 0.271 | 0.307 | 0.272 | 0.307 | 0.278 | 0.205 | 0.233 |
| NCI-H23 | 0.648 | 0.583 | 0.208 | 0.184 | 0.112 | 0.196 | 0.261 | 0.199 | 0.0923 | 0.0935 | 1.02 | 0.759 | 0.564 | 0.123 | 0.138 | 0.638 | 0.561 | 0.316 | 0.117 | 0.0957 |
| CAL-12T | 0.706 | 1.19 | 0.621 | 0.212 | 0.165 | 0.555 | 0.598 | 0.514 | 0.239 | 0.199 | 0.981 | 0.974 | 0.907 | 0.193 | 0.216 | 0.535 | 0.411 | 0.149 | 0.129 | 0.141 |
| EPLC-272H | 0.25 | 0.206 | 0.104 | 0.121 | 0.206 | 0.191 | 0.334 | 0.247 | 0.107 | 0.13 | – | 0.338 | 0.102 | 0.102 | 0.104 | – | 0.277 | 0.225 | 0.163 | 0.136 |
| LCLC-103H | 0.449 | 0.48 | 0.442 | 0.27 | 0.195 | 0.75 | 0.876 | 0.707 | 0.375 | 0.242 | 0.646 | 0.831 | 0.537 | 0.199 | 0.131 | 0.495 | 0.538 | 0.405 | 0.249 | 0.12 |
